In the supplement of paper PMC10307832:

Columns and labels:
Test in all cases: relative viability (nuclei count vs DMSO), 5 days (fraction); higher = more cells survive
HCC-15 = test system: HCC-15
Procedure, shortened: (§1)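 Lung cancer cell lines were pin-tool dosed in 1536-well plates on the day after seeding, with either a lone drug or a fixed anchor-drug dose plus five library-drug doses (not always all listed) in √10 steps. Nuclei were counted on 4× images after 5 days. Relative viability is the ratio of treated-well to vehicle-well nuclei counts, with each value a median of duplicate plates.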

NCI-H1703 = test system: NCI-H1703
Procedure, shortened: as §1

Calu-6 = test system: Calu-6
Procedure, shortened: as §1

IA-LM = test system: IA-LM
Procedure, shortened: as §1

NCI-H1299 = test system: NCI-H1299
Procedure, shortened: as §1

EBC-1 = test system: EBC-1
Procedure, shortened: as §1

UMC-11 = test system: UMC-11
Procedure, shortened: as §1

A549 = test system: A549
Procedure, shortened: as §1

LCLC-103H = test system: LCLC-103H
Procedure, shortened: as §1

`CC1(C)CCC(c2ccc(Cl)cc2)=C(CN2CCN(c3ccc(C(=O)NS(=O)(=O)c4ccc(N[C@H](CCN5CCOCC5)CSc5ccccc5)c(S(=O)(=O)C(F)(F)F)c4)cc3)CC2)C1` [Navitoclax] + CS(=O)(=O)CCNCc1ccc(-c2ccc3ncnc(Nc4ccc(OCc5cccc(F)c5)c(Cl)c4)c3c2)o1 [Lapatinib] (partner 2 µM) gave a relative viability (HCC-15; first compound 0.005 µM) of 0.814, a relative viability (HCC-15; first compound 0.01581 µM) of 0.946 and a relative viability (HCC-15; first compound 0.05 µM) of 0.713. It also gave a relative viability (HCC-15; first compound 0.1581 µM) of 0.813, a relative viability (HCC-15; first compound 0.5 µM) of 0.836 and a relative viability (NCI-H1703; first compound 0.005 µM) of 0.928. For the same molecule, the relative viability (NCI-H1703; first compound 0.01581 µM) was 1.18, the relative viability (NCI-H1703; first compound 0.05 µM) was 1.34 and the relative viability (NCI-H1703; first compound 0.1581 µM) was 1.27. The relative viability (NCI-H1703; first compound 0.5 µM) was 1.01, the relative viability (Calu-6; first compound 0.005 µM) was 1.14 and the relative viability (Calu-6; first compound 0.01581 µM) was 1.13. It also gave a relative viability (Calu-6; first compound 0.05 µM) of 1.05, a relative viability (Calu-6; first compound 0.1581 µM) of 1.04 and a relative viability (Calu-6; first compound 0.5 µM) of 1.01. The relative viability (IA-LM; first compound 0.005 µM) was 0.659, the relative viability (IA-LM; first compound 0.01581 µM) was 1.16 and the relative viability (IA-LM; first compound 0.05 µM) was 1.06. For the same molecule, the relative viability (IA-LM; first compound 0.1581 µM) was 1.02, the relative viability (IA-LM; first compound 0.5 µM) was 0.903 and the relative viability (NCI-H1299; first compound 0.005 µM) was 0.931. The relative viability (NCI-H1299; first compound 0.01581 µM) was 0.956, the relative viability (NCI-H1299; first compound 0.05 µM) was 1 and the relative viability (NCI-H1299; first compound 0.1581 µM) was 0.979. It also gave a relative viability (NCI-H1299; first compound 0.5 µM) of 1, a relative viability (EBC-1; first compound 0.005 µM) of 0.181 and a relative viability (EBC-1; first compound 0.01581 µM) of 0.2. For the same molecule, the relative viability (EBC-1; first compound 0.05 µM) was 0.193, the relative viability (EBC-1; first compound 0.1581 µM) was 0.245 and the relative viability (EBC-1; first compound 0.5 µM) was 0.212. For the same molecule, the relative viability (UMC-11; first compound 0.005 µM) was 0.862, the relative viability (UMC-11; first compound 0.01581 µM) was 1.02 and the relative viability (UMC-11; first compound 0.05 µM) was 0.747. It also gave a relative viability (UMC-11; first compound 0.1581 µM) of 0.858, a relative viability (UMC-11; first compound 0.5 µM) of 0.481 and a relative viability (A549; first compound 0.005 µM) of 1.06. For the same molecule, the relative viability (A549; first compound 0.01581 µM) was 1.02, the relative viability (A549; first compound 0.05 µM) was 1.07 and the relative viability (A549; first compound 0.1581 µM) was 0.945. For the same molecule, the relative viability (A549; first compound 0.5 µM) was 0.949.

In the case of `Oc1nc(-c2ccc(C(F)(F)F)cc2)nc2c1CSCC2` [XAV939] + CC(C)C[C@H](NC(=O)[C@H](Cc1ccccc1)NC(=O)c1cnccn1)B(O)O [Bortezomib] (partner 0.002 µM), the relative viability (HCC-15; first compound 0.08 µM) is reported as 1.2, the relative viability (HCC-15; first compound 0.253 µM) is reported as 0.938 and the relative viability (HCC-15; first compound 0.8 µM) is reported as 1.05. For the same molecule, the relative viability (HCC-15; first compound 2.53 µM) was 1.06, the relative viability (NCI-H1703; first compound 0.08 µM) was 0.451 and the relative viability (NCI-H1703; first compound 0.253 µM) was 0.417. It also gave a relative viability (NCI-H1703; first compound 0.8 µM) of 0.293, a relative viability (NCI-H1703; first compound 2.53 µM) of 0.285 and a relative viability (Calu-6; first compound 0.08 µM) of 0.936. It also gave a relative viability (Calu-6; first compound 0.253 µM) of 0.978, a relative viability (Calu-6; first compound 0.8 µM) of 1.05 and a relative viability (Calu-6; first compound 2.53 µM) of 0.978. It also gave a relative viability (IA-LM; first compound 0.08 µM) of 0.736, a relative viability (IA-LM; first compound 0.253 µM) of 0.617 and a relative viability (IA-LM; first compound 0.8 µM) of 0.607. It also gave a relative viability (IA-LM; first compound 2.53 µM) of 0.487, a relative viability (LCLC-103H; first compound 0.08 µM) of 0.936 and a relative viability (LCLC-103H; first compound 0.253 µM) of 1.11. For the same molecule, the relative viability (LCLC-103H; first compound 0.8 µM) was 0.861, the relative viability (LCLC-103H; first compound 2.53 µM) was 1.01 and the relative viability (NCI-H1299; first compound 0.08 µM) was 1.06. The relative viability (NCI-H1299; first compound 0.253 µM) was 0.996, the relative viability (NCI-H1299; first compound 0.8 µM) was 1.07 and the relative viability (NCI-H1299; first compound 2.53 µM) was 1.05. The relative viability (EBC-1; first compound 0.08 µM) was 0.589, the relative viability (EBC-1; first compound 0.253 µM) was 0.478 and the relative viability (EBC-1; first compound 0.8 µM) was 0.584. It also gave a relative viability (EBC-1; first compound 2.53 µM) of 0.476, a relative viability (UMC-11; first compound 0.08 µM) of 0.789 and a relative viability (UMC-11; first compound 0.8 µM) of 0.754. It also gave a relative viability (UMC-11; first compound 2.53 µM) of 0.708.

For `Oc1nc(-c2ccc(C(F)(F)F)cc2)nc2c1CSCC2` [XAV939] + CS(=O)(=O)CCNCc1ccc(-c2ccc3ncnc(Nc4ccc(OCc5cccc(F)c5)c(Cl)c4)c3c2)o1 [Lapatinib] (partner 2 µM), the relative viability (HCC-15; first compound 0.08 µM) was 1.02, the relative viability (HCC-15; first compound 0.253 µM) was 0.774 and the relative viability (HCC-15; first compound 0.8 µM) was 0.829. For the same molecule, the relative viability (HCC-15; first compound 2.53 µM) was 0.806, the relative viability (NCI-H1703; first compound 0.08 µM) was 1.21 and the relative viability (NCI-H1703; first compound 0.253 µM) was 1.08. For the same molecule, the relative viability (NCI-H1703; first compound 0.8 µM) was 1.15, the relative viability (NCI-H1703; first compound 2.53 µM) was 0.959 and the relative viability (Calu-6; first compound 0.08 µM) was 1.08. It also gave a relative viability (Calu-6; first compound 0.253 µM) of 0.945, a relative viability (Calu-6; first compound 0.8 µM) of 0.991 and a relative viability (Calu-6; first compound 2.53 µM) of 0.903. For the same molecule, the relative viability (IA-LM; first compound 0.08 µM) was 0.901, the relative viability (IA-LM; first compound 0.253 µM) was 0.64 and the relative viability (IA-LM; first compound 0.8 µM) was 0.687. For the same molecule, the relative viability (IA-LM; first compound 2.53 µM) was 0.483, the relative viability (NCI-H1299; first compound 0.08 µM) was 0.989 and the relative viability (NCI-H1299; first compound 0.253 µM) was 1.01. For the same molecule, the relative viability (NCI-H1299; first compound 0.8 µM) was 0.962, the relative viability (NCI-H1299; first compound 2.53 µM) was 0.97 and the relative viability (EBC-1; first compound 0.08 µM) was 0.206. For the same molecule, the relative viability (EBC-1; first compound 0.253 µM) was 0.205, the relative viability (EBC-1; first compound 0.8 µM) was 0.218 and the relative viability (EBC-1; first compound 2.53 µM) was 0.209. For the same molecule, the relative viability (UMC-11; first compound 0.08 µM) was 1.15, the relative viability (UMC-11; first compound 0.253 µM) was 0.742 and the relative viability (UMC-11; first compound 0.8 µM) was 0.97. It also gave a relative viability (UMC-11; first compound 2.53 µM) of 0.921, a relative viability (A549; first compound 0.08 µM) of 1.1 and a relative viability (A549; first compound 0.253 µM) of 0.985. For the same molecule, the relative viability (A549; first compound 0.8 µM) was 0.897 and the relative viability (A549; first compound 2.53 µM) was 0.765.
